These results are taken from publication PMC10353446, “Pharmacokinetics of SPR206 in Plasma, Pulmonary Epithelial Lining Fluid, and Alveolar Macrophages following Intravenous Administration to Healthy Adult Subjects” (Antimicrobial Agents and Chemotherapy, 2023).

Where a SMILES comes first, the peptide text is derived from it. Bridges are numbered along the chain shown (N, C = ends). [ ]: non-standard residue; d: D form. The star is where a group is joined. X1 = NC[C@@H](CC(=O)*)c1cccc(Cl)c1; Dab = NCC[C@H](N)C(=O)O; Dap = NC[C@H](N)C(=O)O

Series [1] can be described thus: clinical. The note with it: human, in vivo, iv, 100 mg. As for the experimental part:
(§1) This was a Phase 1, single-center, multiple-dose, open-label PK study in healthy adult male and female subjects. Subjects received three 100 mg doses of SPR206 administered q8h as a 1-h IV infusion. Three consecutive doses were sufficient to achieve steady-state based on a previous Phase 1 study in healthy subjects ([36]). A screening evaluation to determine eligibility for enrollment into the study was performed within 28 days of initial dosing. Subjects who met inclusion and exclusion criteria returned to the study unit 1 day before dosing (Day -1). Subjects who met inclusion and exclusion criteria were confined to the study site from Day -1 (1 day prior to start of dosing) and remained in the study site through completion of all scheduled procedures including collection of the last PK sample and bronchoscopy procedures along with safety evaluations (Day 2). Each subject underwent 1 bronchoscopy with BAL at 2, 3, 4, 6, or 8 h after the start of the third IV infusion. Subjects were required to return for a follow-up visit on Day 7 (+2 days) after discharge from the study site. The maximum duration of participation for each subject was up to 39 days (up to 28 days for Screening, 2 days of confinement, and up to 9 days for follow-up).
Blood samples for determining SPR206 plasma concentrations were collected within 60 min pre-dose (0 h) prior to second and third doses of SPR206 only and at 2, 3, 4, 6, and 8 h after the start of the third dose of SPR206.
Concentrations of SPR206 in plasma were determined by a validated liquid chromatography with tandem mass spectrometry (LC-MS/MS) assay performed at QPS, LLC. For plasma, the assay range was 50 to 50,000 ng/mL. In plasma, intraday precision (% coefficient of variation) ranged from 1.3% to 7.7%, and accuracy (% relative error) ranged from -1.2% to 9.5%. Interday precision ranged from 2.9% to 5.3% and accuracy ranged from 1.6% to 6.0%.
PK analysis of SPR206 plasma concentrations was determined with noncompartmental PK analysis using Phoenix WinNonlin software (version 8.3, Certara Inc.). PK parameters were Tmax, Cmax, Cmin, and AUC0-8.
Actual BAL samples were collected outside the protocol-specified sampling time windows. Thus, an updated method was utilized where the PK parameters for ELF or AM were calculated from composite concentration profiles of ELF or AM, respectively, based on the 27 subjects in the BAL PK population. Some blood samples were collected outside of the planned sampling windows, and therefore, individual plasma AUC0-8 was calculated first and the mean population plasma AUC0-8 was derived from all individual AUC0-8 values.
Concentrations of SPR206 were summarized separately for plasma, ELF, and AM by nominal time point using descriptive statistics. The mean concentrations of SPR206 in BAL fluid obtained at the different BAL fluid sampling times (e.g., 2, 3, 4, 6, and 8 h) were used to estimate the AUC0-8 for SPR206 in plasma, ELF, and AM. The concentration at the final sampling time (8 h) also served as the time zero value for determining the AUC0-8 value of each matrix using Phoenix WinNonlin software (version 8.3, Certara Inc.). The ratios of the AUC0-8 of ELF or AM to the AUC0-8 of plasma (total and unbound) were calculated. Plasma protein binding analyses were not conducted as part of this study. The value used for the unbound fraction of SPR206 in plasma was 0.914 (Spero Therapeutics, Inc., data on file). The measured concentrations in ELF and AM represented unbound concentrations, since only unbound plasma fractions are considered to penetrate the lung compartments. Individual plasma concentration-time profile versus time and arithmetic mean concentration (±SD) versus time plots were presented for the concentration-time data.

Series [2] is described as follows: Safety and tolerability in healthy subjects (Phase 1 BAL study). The class given is in vivo, human. As for the experimental part:
as §1
Subjects were continuously monitored during the bronchoscopy. Vital signs (blood pressure, heart rate, and respiratory rate) were recorded prior to the scheduled bronchoscopy time and at 15 min and 1 h following the end of bronchoscopy. Subjects were kept under observation for 2 to 3 h post-bronchoscopy for safety evaluations. Continuous pulse oximetry was conducted from the beginning of preparation of the subject for bronchoscopy until the post-procedure oxygen saturation was at least 93% on room air. Pulse oximetry was extended if a clinically significant increase in heart rate or cardiac rhythm abnormalities were detected. Other safety assessments included physical examinations, clinical laboratory monitoring (hematology, blood chemistry, and urinalysis), 12-lead ECG, and adverse event recording.

The conditions of series [3]: cited from earlier work.
Series [4] concerns kidney cell. The note with it: cited from earlier work.
The conditions of series [5]: in vivo; cited from earlier work.

`CC(C)C[C@@H]1NC(=O)[C@@H](Cc2ccccc2)NC(=O)[C@H](CCN)NC(=O)[C@@H](NC(=O)[C@H](CN)NC(=O)[C@@H](NC(=O)C[C@H](CN)c2cccc(Cl)c2)[C@@H](C)O)CCNC(=O)[C@H]([C@@H](C)O)NC(=O)[C@H](CCN)NC(=O)[C@H](CCN)NC1=O` [SPR206] (X1-T[Dap][Dab][Dab][dF]L[Dab][Dab]T; lactam 3-C (inferred)) displayed a volume of distribution (Vd) in series [1] (both sexes) of 19.8 L. The half-life in series [1] (both sexes) is 3.6 h. Further, in series [1] (both sexes, AUC0-8, geometric mean (CV%)), the AUC(0-t) was 19800 ng·h/mL. The Cmax in series [1] (both sexes, arithmetic mean (SD)) was 4400 ng/mL; in series [1] (both sexes, geometric mean (CV%)) it was 4300 ng/mL. Besides, the Tmax in series [1] (both sexes, Median time to peak plasma concentrations (Tmax)) is 2 h; in series [1] (both sexes, Tmax range), 1.8 to 2.9 h; in series [1] (both sexes, Tmax, arithmetic mean (SD)), 2.1 h; in series [1] (both sexes, Tmax, geometric mean (CV%)), 2.1 h. Besides, the “AUC0-8, geometric mean (CV%)” value in series [1] (both) is 19817.9 (17.9) h*ng/mL. The “Cmax, geometric mean (CV%)” value in series [1] (both) was 4333.4 (17.2) ng/mL. The “t1/2, geometric mean (CV%)” value in series [1] (both) is 3.6 (13.5) hours. Further, in series [1], the “Vz, geometric mean (CV%)” value was 19502.1 (18.1) mL. Also, in series [2] (100 mg IV q8h x 3 doses), the “Deaths, serious AEs, AEs leading to discontinuation” value is reported as “No deaths, serious AEs, or AEs leading to study drug discontinuation or study discontinuation were reported”. Also, the “TEAEs reported as mild in severity (of 40 reported TEAEs)” value in series [2] (human, in vivo, iv) worked out at 85.0%. Also, the “Clinical laboratory parameters including blood urea nitrogen, serum creatinine, estimated creatinine clearance” value in series [2] (human, in vivo, iv, 100 mg) is “No clinically significant abnormalities”. In addition, the “Unbound fraction in plasma” value in series [3] is recorded as 0.914. The Kidney cell cytotoxicity entry in series [4] is listed as “reduced kidney cell cytotoxicity”. Further, the “Exposure in the kidney” value in series [5] is listed as “lower exposure in the kidney than polymyxin B”.
